≈ marks a conversion by molar mass, not a printed value. Calls of active or inactive are those of the source. The rule behind the calls is not given here.
Assays:
RPMI-8226 [1] = test: Antitumor activity against human RPMI8226 cells xenografted in C.B17/Icr scid/scid Jcl mouse assessed as tumor growth suppression at 2.5 mg/kg, po qd administered for 14 days measured post last dose relative to control; format: functional
RPMI-8226 [2] = test: Antitumor activity against human RPMI8226 cells xenografted in C.B17/Icr scid/scid Jcl mouse assessed as tumor growth suppression at 1.25 mg/kg, po bid administered for 14 days measured post last dose relative to control; format: functional
SW480 = test: Growth inhibition of human SW480 cells after 196 hrs by CellTiter-Glo luminescence assay relative to control; format: functional
[3] = Intrinsic clearance in human liver microsomes at 1 umol/l after 15 to 30 mins in presence of NADPH by LC-MS/MS analysis; format: ADME, microsome; details: read-out: CLH
[4] = Aqueous solubility of the compound in DMSO at pH 6.8 by HPLC method; format: physicochemical
[5] = target: Cyclin-dependent kinase 8 (Homo sapiens, UniProt P49336); test: Binding affinity to partial length wild-type human CDK8 (M1 to T360residues) expressed in bacterial expression system by kinome scan assay
Ephrin type-A receptor 3 = Ephrin type-A receptor 3 (Homo sapiens, UniProt P29320); test: Binding affinity to partial length wild-type human EPHA3 (D604 to K889 residues) expressed in bacterial expression system by kinome scan assay
[6] = Volume of distribution at steady state in ICR mouse plasma at 0.1 mg/kg, iv administered as cassette dose by LC-MS/MS analysis; format: ADME, organism-based; details: read-out: Vdss
[7] = Cmax in ICR mouse plasma at 1 mg/kg, po administered as cassette dose by LC-MS/MS analysis; format: ADME, organism-based; design: dose 1 mg/kg, route oral
[8] = Oral bioavailability in ICR mouse plasma at 1 mg/kg administered as cassette dose by LC-MS/MS analysis; format: ADME, organism-based
[9] = target: T1, Cyclin-dependent kinase 9 (Homo sapiens, UniProt P50750); test: Inhibition of CDK9 (unknown origin) at 1 uM relative to control
[10] = target: Glycogen synthase kinase-3 beta (Homo sapiens) (UniProt P49841); test: Inhibition of GSK3beta (unknown origin) at 1 uM using GSK3 substrate peptide preincubated for 5 mins followed by substrate addition measured after 30 mins in presence of [gamma33P]ATP by scintillation counter method relative to control
[11] = target: Serine/threonine-protein kinase PLK1 (Homo sapiens) (UniProt P53350); test: Inhibition of PLK1 (unknown origin) at 1 uM using alpha-casein as substrate preincubated for 5 mins followed by substrate addition measured after 60 mins in presence of [gamma33P]ATP by scintillation counter method relative to control
[12] = target: Casein kinase I isoform delta (Homo sapiens) (UniProt P48730); test: Inhibition of CK1delta (unknown origin) at 1 uM using CK1tide as substrate preincubated for 5 mins followed by substrate addition measured after 20 mins in presence of [gamma33P]ATP by scintillation counter method relative to control
[13] = target: CDC7/DBF4 (Cell division cycle 7-related protein kinase/Activator of S phase kinase) (Homo sapiens) (UniProt Q9UBU7+O00311); test: Inhibition of CDC7/Dbf4 (unknown origin) at 1 uM using His-tagged MCM2 as substrate preincubated for 5 mins followed by substrate addition measured after 60 mins in presence of [gamma33P]ATP by scintillation counter method relative to control; format: protein-complex assay
[14] = target: Dual specificity mitogen-activated protein kinase kinase 1 (Homo sapiens) (UniProt Q02750); test: Inhibition of MEK1 (unknown origin) at <1 uM using GST-ERK1 as substrate preincubated for 5 mins followed by substrate addition measured after 20 mins in presence of [gamma33P]ATP by scintillation counter method
[15] = target: MAP kinase-activated protein kinase 2 (Homo sapiens) (UniProt P49137); test: Inhibition of MAPKAPK2 (unknown origin) at <1 uM using KKLNRTLSVA-NH2 as substrate preincubated for 5 mins followed by substrate addition measured after 10 mins in presence of [gamma33P]ATP by scintillation counter method
[16] = target: Serine/threonine-protein kinase Chk1 (Homo sapiens) (UniProt O14757); test: Inhibition of CHK1 (unknown origin) at <1 uM using CHKtide as substrate preincubated for 5 mins followed by substrate addition measured after 10 mins in presence of [gamma33P]ATP by scintillation counter method
[17] = target: Vascular endothelial growth factor receptor 2 (Homo sapiens) (UniProt P35968); test: Inhibition of VEGFR2 (unknown origin) at <1 uM using biotinylated poly[Glu:Tyr] (4:1) as substrate pretreated for 5 mins followed by substrate addition measured after 10 mins by Alphascreen assay
[18] = target: Ephrin type-A receptor 5 (Homo sapiens) (UniProt P54756); test: Inhibition of EphA5 (unknown origin) at <1 uM using biotinylated poly[Glu:Tyr] (4:1) as substrate pretreated for 5 mins followed by substrate addition measured after 10 mins by Alphascreen assay
[19] = target: Focal adhesion kinase 1 (Homo sapiens) (UniProt Q05397); test: Inhibition of FAK (unknown origin) at <1 uM using biotinylated poly[Glu:Tyr] (4:1) as substrate pretreated for 5 mins followed by substrate addition measured after 20 mins by Alphascreen assay
[20] = target: Phosphatidylinositol 4,5-bisphosphate 3-kinase catalytic subunit alpha isoform (Homo sapiens) (UniProt P42336); test: Inhibition of PI3Kalpha (unknown origin) at <1 uM
[21] = target: Mitogen-activated protein kinase 3 (Homo sapiens) (UniProt P27361); test: Inhibition of ERK1 (unknown origin) at <1 uM using MBP as substrate preincubated for 5 mins followed by substrate addition measured after 60 mins in presence of [gamma33P]ATP by scintillation counter method
[22] = target: High affinity nerve growth factor receptor (Homo sapiens) (UniProt P04629); test: Inhibition of TrkA (unknown origin) at <1 uM
[23] = target: Interleukin-1 receptor-associated kinase 1 (Homo sapiens) (UniProt P51617); test: Binding affinity to partial length wild-type human […] (R194 to S712 residues) expressed in mammalian expression system assessed as unbound drug level at 300 nM by KINOMEscan assay
CDK8/Cyclin C = CDK8/Cyclin C (Homo sapiens, UniProt P49336); test: Inhibition of kinase tracer-236 binding to GST-tagged CDK8/CyclinC (unknown origin) after 60 mins by TR-FRET assay; format: protein-complex assay
[24] = target: T1, Cyclin-dependent kinase 9; test: Inhibition of CDK9 (unknown origin)
[25] = target: CDK8/Cyclin C (Homo sapiens) (UniProt P49336+P24863); details: 1 uM
Description: Inhibition of kinase tracer-236 binding to GST-tagged CDK8/CyclinC (unknown origin) at 1 uM after 60 mins by TR-FRET assay relative to control

[26] = target: Cyclin-C/Cyclin-dependent kinase 19 (Homo sapiens) (UniProt Q9BWU1+P24863); details: 1 uM
Description: Inhibition of kinase tracer-236 binding to GST-tagged CDK19/CyclinC (unknown origin) at 1 uM after 60 mins by TR-FRET assay relative to control

[27] = target: Cyclin-dependent kinase 19 (Homo sapiens, UniProt Q9BWU1); details: 300 nM
[28] = target: Homeodomain-interacting protein kinase 1 (Homo sapiens, UniProt Q86Z02); details: 300 nM

T1 sequence (P50750 whole entry): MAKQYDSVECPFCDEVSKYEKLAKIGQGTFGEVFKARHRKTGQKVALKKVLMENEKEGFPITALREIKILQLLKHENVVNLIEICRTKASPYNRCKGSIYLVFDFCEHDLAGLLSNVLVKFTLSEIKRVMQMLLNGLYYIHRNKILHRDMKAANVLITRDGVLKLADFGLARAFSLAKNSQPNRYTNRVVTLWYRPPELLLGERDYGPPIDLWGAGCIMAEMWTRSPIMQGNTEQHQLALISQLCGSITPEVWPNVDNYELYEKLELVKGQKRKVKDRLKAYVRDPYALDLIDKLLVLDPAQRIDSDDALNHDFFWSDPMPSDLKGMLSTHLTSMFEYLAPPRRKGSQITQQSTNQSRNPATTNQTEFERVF
Dual specificity mitogen-activated protein kinase kinase 1 (Homo sapiens), sequence (Q02750 whole entry): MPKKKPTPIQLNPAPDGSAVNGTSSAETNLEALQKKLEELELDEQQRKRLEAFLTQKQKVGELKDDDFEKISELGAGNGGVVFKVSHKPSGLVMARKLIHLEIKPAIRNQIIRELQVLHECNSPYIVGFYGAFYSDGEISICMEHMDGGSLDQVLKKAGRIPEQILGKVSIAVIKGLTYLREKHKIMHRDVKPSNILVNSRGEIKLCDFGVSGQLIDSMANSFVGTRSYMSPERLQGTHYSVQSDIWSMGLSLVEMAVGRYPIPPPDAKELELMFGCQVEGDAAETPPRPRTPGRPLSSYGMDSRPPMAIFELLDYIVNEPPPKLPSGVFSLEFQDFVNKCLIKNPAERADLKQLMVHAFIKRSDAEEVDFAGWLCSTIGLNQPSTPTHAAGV
Cyclin-dependent kinase 8, sequence (P49336 whole entry, the tested form may be a part): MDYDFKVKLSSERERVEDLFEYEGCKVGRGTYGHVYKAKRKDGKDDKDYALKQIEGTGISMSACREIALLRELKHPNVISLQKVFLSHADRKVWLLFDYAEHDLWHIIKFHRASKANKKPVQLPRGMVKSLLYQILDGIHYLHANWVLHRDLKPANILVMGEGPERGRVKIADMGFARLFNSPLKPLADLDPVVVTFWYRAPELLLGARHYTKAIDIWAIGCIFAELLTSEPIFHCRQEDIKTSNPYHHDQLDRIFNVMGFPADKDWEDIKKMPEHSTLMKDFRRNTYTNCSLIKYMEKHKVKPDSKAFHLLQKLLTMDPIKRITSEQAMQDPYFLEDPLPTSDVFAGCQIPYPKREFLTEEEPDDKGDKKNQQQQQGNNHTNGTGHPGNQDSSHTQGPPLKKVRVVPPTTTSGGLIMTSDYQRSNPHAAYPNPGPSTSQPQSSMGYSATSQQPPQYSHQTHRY
CDK8/Cyclin C, sequence (P49336 whole entry): as the sequence (P49336 whole entry, the tested form may be a part) above
CDK8/Cyclin C, sequence (P24863 whole entry, further chain): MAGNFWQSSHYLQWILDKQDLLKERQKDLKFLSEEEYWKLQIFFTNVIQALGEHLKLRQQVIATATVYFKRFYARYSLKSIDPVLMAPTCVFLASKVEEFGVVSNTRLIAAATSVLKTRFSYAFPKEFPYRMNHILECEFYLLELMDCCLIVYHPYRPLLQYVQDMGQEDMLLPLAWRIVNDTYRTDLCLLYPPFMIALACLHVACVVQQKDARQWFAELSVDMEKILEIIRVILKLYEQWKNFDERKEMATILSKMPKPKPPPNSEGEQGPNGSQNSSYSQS
Ephrin type-A receptor 5 (Homo sapiens), sequence (P54756 whole entry): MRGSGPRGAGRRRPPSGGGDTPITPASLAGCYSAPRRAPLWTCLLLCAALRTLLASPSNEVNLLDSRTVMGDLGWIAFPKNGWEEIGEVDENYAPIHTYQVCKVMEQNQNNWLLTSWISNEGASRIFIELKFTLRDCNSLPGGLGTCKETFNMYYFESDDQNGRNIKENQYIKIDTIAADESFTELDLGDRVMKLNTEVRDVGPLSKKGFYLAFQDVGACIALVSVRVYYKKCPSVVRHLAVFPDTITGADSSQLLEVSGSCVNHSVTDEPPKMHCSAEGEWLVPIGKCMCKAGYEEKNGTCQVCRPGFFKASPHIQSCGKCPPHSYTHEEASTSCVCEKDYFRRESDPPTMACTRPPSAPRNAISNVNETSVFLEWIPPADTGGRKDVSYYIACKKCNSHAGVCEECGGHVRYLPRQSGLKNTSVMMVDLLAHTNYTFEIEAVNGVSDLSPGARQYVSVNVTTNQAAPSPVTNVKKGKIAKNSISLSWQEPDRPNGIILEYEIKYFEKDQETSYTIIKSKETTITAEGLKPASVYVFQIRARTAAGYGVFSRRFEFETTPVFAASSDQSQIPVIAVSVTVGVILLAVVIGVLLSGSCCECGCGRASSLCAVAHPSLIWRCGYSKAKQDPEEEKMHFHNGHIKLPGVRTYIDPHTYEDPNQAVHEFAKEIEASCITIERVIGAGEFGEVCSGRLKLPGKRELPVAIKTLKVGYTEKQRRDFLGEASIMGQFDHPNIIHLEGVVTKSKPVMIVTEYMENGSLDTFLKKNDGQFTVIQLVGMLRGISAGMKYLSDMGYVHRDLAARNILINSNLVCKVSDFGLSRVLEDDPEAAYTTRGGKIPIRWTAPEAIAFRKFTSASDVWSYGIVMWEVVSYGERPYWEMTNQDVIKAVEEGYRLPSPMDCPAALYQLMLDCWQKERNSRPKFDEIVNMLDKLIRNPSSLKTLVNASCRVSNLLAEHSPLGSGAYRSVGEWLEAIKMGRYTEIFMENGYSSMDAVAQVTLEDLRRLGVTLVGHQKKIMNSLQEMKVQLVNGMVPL
Interleukin-1 receptor-associated kinase 1 (Homo sapiens), sequence (P51617 whole entry, looked up, the tested form may be a part): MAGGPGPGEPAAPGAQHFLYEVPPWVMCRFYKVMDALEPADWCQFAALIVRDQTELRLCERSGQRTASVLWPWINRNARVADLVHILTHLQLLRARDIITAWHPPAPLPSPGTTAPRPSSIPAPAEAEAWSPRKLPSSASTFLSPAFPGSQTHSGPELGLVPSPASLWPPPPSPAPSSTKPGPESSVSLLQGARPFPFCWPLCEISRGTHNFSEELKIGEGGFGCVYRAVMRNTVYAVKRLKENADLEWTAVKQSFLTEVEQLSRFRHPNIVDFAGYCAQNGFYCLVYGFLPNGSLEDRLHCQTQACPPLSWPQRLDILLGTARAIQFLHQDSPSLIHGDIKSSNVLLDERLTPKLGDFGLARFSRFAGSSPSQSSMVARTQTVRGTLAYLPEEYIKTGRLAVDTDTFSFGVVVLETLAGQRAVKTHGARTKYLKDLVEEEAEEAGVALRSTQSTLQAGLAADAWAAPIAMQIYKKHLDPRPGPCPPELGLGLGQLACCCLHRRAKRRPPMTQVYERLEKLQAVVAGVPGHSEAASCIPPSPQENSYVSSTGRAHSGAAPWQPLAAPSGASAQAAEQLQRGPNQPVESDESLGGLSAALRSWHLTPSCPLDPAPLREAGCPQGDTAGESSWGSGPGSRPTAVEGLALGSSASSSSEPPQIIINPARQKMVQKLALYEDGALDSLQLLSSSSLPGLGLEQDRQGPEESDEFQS
Glycogen synthase kinase-3 beta (Homo sapiens), sequence (P49841 whole entry, looked up): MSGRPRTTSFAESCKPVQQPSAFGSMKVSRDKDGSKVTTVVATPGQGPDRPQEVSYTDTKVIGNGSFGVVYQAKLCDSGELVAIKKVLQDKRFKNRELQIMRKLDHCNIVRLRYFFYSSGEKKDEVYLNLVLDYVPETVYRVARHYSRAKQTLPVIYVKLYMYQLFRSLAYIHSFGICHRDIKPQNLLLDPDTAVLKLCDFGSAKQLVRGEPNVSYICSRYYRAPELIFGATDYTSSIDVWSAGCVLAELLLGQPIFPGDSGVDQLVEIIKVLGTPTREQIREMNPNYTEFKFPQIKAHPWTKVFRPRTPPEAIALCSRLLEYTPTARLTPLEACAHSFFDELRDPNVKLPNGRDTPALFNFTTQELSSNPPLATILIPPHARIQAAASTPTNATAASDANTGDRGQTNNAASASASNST
Cyclin-dependent kinase 19, sequence (Q9BWU1 whole entry): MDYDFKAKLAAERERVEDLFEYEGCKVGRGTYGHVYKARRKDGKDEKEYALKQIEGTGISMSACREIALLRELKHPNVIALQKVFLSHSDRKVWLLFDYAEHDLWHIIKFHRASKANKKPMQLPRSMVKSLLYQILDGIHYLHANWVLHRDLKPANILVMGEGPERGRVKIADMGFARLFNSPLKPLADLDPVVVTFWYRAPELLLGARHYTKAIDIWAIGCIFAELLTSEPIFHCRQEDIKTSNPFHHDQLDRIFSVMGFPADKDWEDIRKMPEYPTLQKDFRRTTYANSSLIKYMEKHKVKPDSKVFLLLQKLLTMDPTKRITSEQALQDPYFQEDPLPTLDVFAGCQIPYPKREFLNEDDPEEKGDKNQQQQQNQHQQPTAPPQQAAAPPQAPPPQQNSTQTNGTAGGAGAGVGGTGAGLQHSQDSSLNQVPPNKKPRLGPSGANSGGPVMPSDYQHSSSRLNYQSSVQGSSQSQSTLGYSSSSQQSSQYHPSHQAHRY
Casein kinase I isoform delta (Homo sapiens), sequence (P48730 whole entry, looked up, canonical isoform): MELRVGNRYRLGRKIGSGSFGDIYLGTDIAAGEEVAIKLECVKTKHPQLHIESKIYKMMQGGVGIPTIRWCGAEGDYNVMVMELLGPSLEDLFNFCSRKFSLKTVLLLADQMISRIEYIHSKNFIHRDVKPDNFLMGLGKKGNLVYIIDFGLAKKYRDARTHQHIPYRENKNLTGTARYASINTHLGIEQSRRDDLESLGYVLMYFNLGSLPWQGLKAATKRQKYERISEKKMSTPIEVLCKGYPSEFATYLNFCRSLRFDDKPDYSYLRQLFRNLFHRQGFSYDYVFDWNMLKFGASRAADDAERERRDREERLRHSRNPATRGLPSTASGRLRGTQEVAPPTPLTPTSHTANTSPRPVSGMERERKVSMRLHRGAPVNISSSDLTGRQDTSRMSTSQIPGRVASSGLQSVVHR

With `COCCNC(=O)c1ccc(Oc2sc(C(N)=O)c3c2-c2sncc2CC3)cn1` the T/C (RPMI-8226 [1]) was -1%, the T/C (RPMI-8226 [2]) was 27% and the “growth inhibition (GI)” value (SW480) was >50%. For the same compound, the microsomal CLint at 1 µM [3] was 21 µL/min/mg, the solubility [4] was 47 µg/mL (≈ 109 µM) and the Kd [5] was 46 nM. The Kd (Ephrin type-A receptor 3) was > 3000 nM, the Vd [6] was 2.14 L/kg and the Cmax [7] was 362 ng/mL. For the same compound, the bioavailability [8] was 98.5%, the inhibition [9] was 83% and the inhibition [10] was 31%. It also gave an inhibition [11] of 4%, an inhibition [12] of 28% and an inhibition [13] of 33%. For the same compound, the inhibition [14] was “inactive”, the inhibition [15] was “inactive” and the inhibition [16] was “inactive”. The inhibition [17] was “inactive”, the inhibition [18] was “inactive” and the inhibition [19] was “inactive”. For the same compound, the inhibition [20] was “inactive”, the inhibition [21] was “inactive” and the inhibition [22] was “inactive”. The Fu [23] was 0.49%, the IC50 (CDK8/Cyclin C) was 0.46 nM and the IC50 [24] was 270 nM. The inhibition [25] was 105%, the inhibition [26] was 100% and the Fu [27] was 0.046%. It also gave a Fu [28] of 0.32%.

— ChEMBL document CHEMBL4028808, “Design and synthesis of selective CDK8/19 dual inhibitors: Discovery of 4,5-dihydrothieno[3',4':3,4]benzo[1,2-d]isothiazole derivatives” (Bioorg Med Chem, 2017)
